# Test results reported in ChEMBL document CHEMBL3259561, “Search for novel histone deacetylase inhibitors. Part II: design and synthesis of novel isoferulic acid derivatives” (Bioorg Med Chem, 2014).
# Key:
# [1] = target: Histone deacetylase; experiment: Inhibition of HDAC in human HeLa cell nuclear extract using acetylated lysine as substrate after 30 mins by spectrophotometric analysis; type: protein assay
# [2] = system: MDA-MB-231; experiment: cells; type: functional, cell-based; conditions: Homo sapiens, MDA-MB-231, 48 h
# Description: Growth inhibition of human MDA-MB-231 cells after 48 hrs by MTT assay
# [3] = system: HeLa; experiment: cells; type: functional, cell-based; conditions: Homo sapiens, 48 h
# Description: Growth inhibition of human HeLa cells after 48 hrs by MTT assay
SMILES,IC50 [1] [µM],IC50 [2] [µM],IC50 [3] [µM]
COc1ccc(/C=C/C(=O)Nc2ccc(C)cc2N)cc1OCC(=O)Nc1cc(C(F)(F)F)cc(C(F)(F)F)c1,56.71,–,–
COc1ccc(/C=C/C(=O)Nc2ccccc2N)cc1OCC(=O)Nc1ccc(Cl)c(Cl)c1,> 200,–,–
COc1ccc(NC(=O)COc2cc(/C=C/C(=O)NO)ccc2OC)cc1,0.94,3.81,4.87
COc1ccc(/C=C/C(=O)Nc2ccc(C)cc2N)cc1OCC(=O)Nc1ccccc1F,29.5,–,–
COc1ccc(/C=C/C(=O)Nc2ccc(C)cc2N)cc1OCC(=O)Nc1ccc(Cl)c(Cl)c1,> 200,–,–
COc1ccc(/C=C/C(=O)Nc2ccc(C)cc2N)cc1OCC(=O)Nc1cc(Br)cc(C(F)(F)F)c1,124.67,–,–
COc1ccc(/C=C/C(=O)Nc2ccccc2N)cc1OCC(=O)Nc1ccc(Br)cc1,> 200,–,–
COc1ccc(/C=C/C(=O)Nc2ccccc2N)cc1OCC(=O)Nc1ccc(F)c(Cl)c1,66.52,–,–
COc1ccc(/C=C/C(=O)Nc2ccc(C)cc2N)cc1OCC(=O)Nc1cccc(F)c1,71.02,–,–
COc1ccc(/C=C/C(=O)NO)cc1OCC(=O)Nc1ccc(Cl)c(Cl)c1,1.37,1.9,13.3
COc1ccc(NC(=O)COc2cc(/C=C/C(=O)Nc3ccc(C)cc3N)ccc2OC)cc1,164.61,–,–
COc1ccc(/C=C/C(=O)Nc2ccc(C)cc2N)cc1OCC(=O)Nc1cccc(C(F)(F)F)c1,> 200,–,–
COc1ccc(/C=C/C(=O)NO)cc1OCC(=O)Nc1cc(C(F)(F)F)cc(C(F)(F)F)c1,4.91,–,–
COc1ccc(/C=C/C(=O)NO)cc1OCC(=O)Nc1cccc(C(F)(F)F)c1,2.96,–,–
COc1ccc(/C=C/C(=O)NO)cc1OCC(=O)Nc1cc(Br)cc(C(F)(F)F)c1,9.04,–,–
COc1ccc(/C=C/C(=O)NO)cc1OCC(=O)Nc1ccc(Br)cc1,0.73,5.87,5.39
COc1ccc(/C=C/C(=O)Nc2ccccc2N)cc1OCC(=O)Nc1cc(Br)cc(C(F)(F)F)c1,> 200,–,–
COc1ccc(/C=C/C(=O)NO)cc1OCC(=O)Nc1cccc(F)c1,2.81,3.41,6.48
COc1ccc(/C=C/C(=O)Nc2ccccc2N)cc1OCC(=O)Nc1cccc(C(F)(F)F)c1,22.16,–,–
COc1ccc(/C=C/C(=O)Nc2ccccc2N)cc1OCC(=O)Nc1cc(C(F)(F)F)cc(C(F)(F)F)c1,> 200,–,–
COc1ccc(/C=C/C(=O)Nc2ccccc2N)cc1OCC(=O)Nc1cccc(F)c1,24.01,–,–
COc1ccc(NC(=O)COc2cc(/C=C/C(=O)Nc3ccccc3N)ccc2OC)cc1,49.3,–,–
COc1ccc(/C=C/C(=O)Nc2ccc(C)cc2N)cc1OCC(=O)Nc1ccc(F)c(Cl)c1,31.32,–,–
COc1ccc(/C=C/C(=O)NO)cc1OCC(=O)Nc1ccc(F)c(Cl)c1,5.82,–,–
COc1ccc(/C=C/C(=O)Nc2ccccc2N)cc1OCC(=O)Nc1ccccc1F,15.6,15.5,20.5
COc1ccc(/C=C/C(=O)Nc2ccc(C)cc2N)cc1OCC(=O)Nc1ccc(Br)cc1,58.24,–,–
COc1ccc(/C=C/C(=O)NO)cc1OCC(=O)Nc1ccccc1F,0.57,15.6,3.91
